Target: Recombinant KAT6A/MOZ (488-778) protein (Homo sapiens (Human), UniProt Q92794)
Test: KAT6A AlphaLISA Inhibition Screening Assay
Format: biochemical
Conditions: for inhibition at 1 µM: read-out: Average Kat6A % inhibition @ 1 μM; for inhibition at 1 µM / Average Kat6A % inhibition @ 1 μM: 1 μM test compound; for inhibition at 10 µM: read-out: Average Kat6A % inhibition @ 10 μM; for inhibition at 10 µM / Average Kat6A % inhibition @ 10 μM: 10 μM test compound
How it was run: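 25 nM KAT6A (488-778) pre-incubated 60 or 10 min with compound (10-point, 3-fold from 10 μM), then 400 nM acetyl-CoA and 200 nM biotin-H3(1-21) peptide added for 120 min at RT in pH 8.0 Tris buffer with 330 nM TSA. Acetylation read by AlphaLISA (anti-acetyl-lysine acceptor/streptavidin donor beads); % inhibition vs vehicle.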

Chain of Recombinant KAT6A/MOZ (488-778) protein (Q92794 488-778): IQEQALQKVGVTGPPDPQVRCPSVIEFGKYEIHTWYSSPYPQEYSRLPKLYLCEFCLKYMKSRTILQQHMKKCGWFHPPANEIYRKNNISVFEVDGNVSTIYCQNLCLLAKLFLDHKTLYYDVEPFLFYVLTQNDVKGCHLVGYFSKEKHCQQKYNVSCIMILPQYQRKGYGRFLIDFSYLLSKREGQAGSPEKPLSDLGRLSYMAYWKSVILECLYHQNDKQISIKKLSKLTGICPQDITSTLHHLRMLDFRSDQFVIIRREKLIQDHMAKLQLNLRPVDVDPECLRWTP

Compound	inhibition at 1 µM	inhibition at 10 µM	Average Kat6A % inhibition @ 1 μM	Average Kat6A % inhibition @ 10 μM
C=C(F)C(=O)NCc1ccnc(Oc2cc(OC)c3c(NS(=O)(=O)c4cc(CC)ccc4OC)noc3c2)c1 [Syn. Ex. 111, N-((2-((3-((5-ethyl-2-methoxyphenyl)sulfonamido)-4-methoxybenzo[d]isoxazol-6-yl)oxy)pyridin-4-yl)methyl)-2-fluoroacrylamide]	0%	54%	–	–
CCc1ccc(OCc2nnco2)c(S(=O)(=O)Nc2noc3cc(Cn4cc(CNC(=O)OC)cn4)cc(OC)c23)c1 [Syn. Ex. 127, methyl ((1-((3-((2-((1,3,4-oxadiazol-2-yl)methoxy)-5-ethylphenyl)sulfonamido)-4-methoxybenzo[d]isoxazol-6-yl)methyl)-1H-pyrazol-4-yl)methyl)carbamate]	101%	100%	–	–
CCc1ccc(OC)c(S(=O)(=O)Nc2noc3cc(Cn4cc(CNC(=O)[C@H](C)F)cn4)cc(OC)c23)c1 (single isomer, unassigned) [Syn. Ex. 47b]	96%	100%	–	–
CCc1ccc(OC)c(S(=O)(=O)Nc2noc3cc(Cn4cc(CNC(=O)OCCNC(=O)OC(C)(C)C)cn4)cc(OC)c23)c1 [Syn. Ex. 31, 2-((tert-butoxycarbonyl)amino)ethyl ((1-((3-((5-ethyl-2-methoxyphenyl)sulfonamido)-4-methoxybenzo[d]isoxazol-6-yl)methyl)-1H-pyrazol-4-yl)methyl)carbamate]	86%	99%	–	–
CCc1ccc(OC)c(S(=O)(=O)Nc2noc3cc(Cn4cc(CNC(=O)OC)cn4)cc(OC(F)F)c23)c1 [Syn. Ex. 63, methyl ((1-((4-(difluoromethoxy)-3-((5-ethyl-2-methoxyphenyl)sulfonamido)benzo[d]isoxazol-6-yl)methyl)-1H-pyrazol 4yl)methyl)carbamate]	95%	96%	–	–
CCc1ccc(OC)c(S(=O)(=O)Nc2noc3cc(Oc4ncc(CNC(=O)OC)s4)c(OC)cc23)c1 [Syn. Ex. 149, methyl —{N}—[[2-[[3-[(5-ethyl-2-methoxy-phenyl)sulfonylamino]-5-methoxy-1,2-benzoxazol-6-yl]oxy]thiazol-5-yl]methyl]carbamate]	–	–	101%	102%
N-[[2-[[4-methoxy-3-[(6-methoxyindan-5-yl)sulfonylamino]-1,2-benzoxazol-6-yl]oxy]thiazol-5-yl]methyl]carbamate [Syn. Ex. 148]	–	–	115%	117%
COC(=O)NCc1cnn(Cc2cc(OC)c3c(NS(=O)(=O)c4cc(C)cc5cccnc45)noc3c2)c1 [Syn. Ex. 130, methyl ((1-((4-methoxy-3-((6-methylquinoline)-8-sulfonamido)benzo[d]isoxazol-6-yl)methyl)-1H-pyrazol-4-yl)methyl)carbamate]	–	–	100%	102%
CCc1ccc(OC)c(S(=O)(=O)Nc2noc3cc(Oc4nc(CNC(=O)OC)cs4)cc(OC)c23)c1 [Syn. Ex. 104, methyl ((2-((3-((5-ethyl-2-methoxyphenyl)sulfonamido)-4-methoxybenzo[d]isoxazol-6-yl)oxy)thiazol-4-yl)methyl)carbamate]	25%	92%	–	–
C=C(F)C(=O)NCc1cnn(Cc2cc(OC)c3c(NS(=O)(=O)c4cc(CC)ccc4OCc4ncon4)noc3c2)c1 [Syn. Ex. 73, N-((1-((3-((2-((1,2,4-oxadiazol-3-yl)methoxy)-5-ethylphenyl)sulfonamido)-4-methoxybenzo[d]isoxazol-6-yl)methyl)-1H-pyrazol-4-yl)methyl)-2-fluoroacrylamide]	100%	100%	–	–
CC#CC(=O)N1Cc2cn(Cc3cc(OC)c4c(NS(=O)(=O)c5cc(CC)ccc5OC)noc4c3)nc2C1 [Syn. Ex. 12, N-(6-((5-(but-2-ynoyl)-5,6-dihydropyrrolo[3,4-c]pyrazol-2(4H)-yl)methyl)-4-methoxybenzo[d]isoxazol-3-yl)-5-ethyl-2-methoxybenzenesulfonamide]	38%	97%	–	–
CCc1ccc(OCCC#N)c(S(=O)(=O)Nc2noc3cc(Cn4cc(CNC(=O)OC)cn4)cc(OC)c23)c1 [Syn. Ex. 83, methyl ((1-((3-((2-(2-cyanoethoxy)-5-ethylphenyl)sulfonamido)-4-methoxybenzo[d]isoxazol-6-yl)methyl)-1H-pyrazol-4-yl)methyl)carbamate]	98%	99%	–	–
C=C(F)C(=O)NCc1cnn(Cc2cc(OC)c3c(NS(=O)(=O)c4cc(CC)ccc4OCCNC(C)=O)noc3c2)c1 [Syn. Ex. 82, N-((1-((3-((2-(2-acetamidoethoxy)-5-ethylphenyl)sulfonamido)-4-methoxybenzo[d]isoxazol-6-yl)methyl)-1H-pyrazol-4-yl)methyl)-2-fluoroacrylamide]	94%	99%	–	–
CCc1ccc(OCCNC(C)=O)c(S(=O)(=O)Nc2noc3cc(Cn4cc(CNC(=O)OC)cn4)cc(OC)c23)c1 [Syn. Ex. 81, methyl ((1-((3-((2-(2-acetamidoethoxy)-5-ethylphenyl)sulfonamido)-4-methoxybenzo[d]isoxazol-6-yl)methyl)-1H-pyrazol-4-yl)methyl)carbamate]	91%	99%	–	–
COc1ccc(C(C)C)cc1S(=O)(=O)Nc1noc2cc(Cn3cc(CNS(C)(=O)=O)cn3)cc(OC)c12 [Syn. Ex. 38, 5-isopropyl-2-methoxy-N-(4-methoxy-6-((4-(methylsulfonamidomethyl)-1H-pyrazol-1-yl)methyl)benzo[d]isoxazol-3-yl)benzenesulfonamide]	100%	99%	–	–
C#Cc1ccc(OC)c(S(=O)(=O)Nc2noc3cc(Cn4cc(CNC(=O)OC)cn4)cc(OC)c23)c1 [Syn. Ex. 112, methyl ((1-((3-((5-ethynyl-2-methoxyphenyl)sulfonamido)-4-methoxybenzo[d]isoxazol-6-yl)methyl)-1H-pyrazol-4-yl)methyl)carbamate]	70%	98%	–	–
C=C(F)C(=O)NCc1csc(Oc2cc(OC)c3c(NS(=O)(=O)c4cc(CC)ccc4OC)noc3c2)n1 [Syn. Ex. 105, N-((2-((3-((5-ethyl-2-methoxyphenyl)sulfonamido)-4-methoxybenzo[d]isoxazol-6-yl)oxy)thiazol-4-yl)methyl)-2-fluoroacrylamide]	68%	99%	–	–

The remaining lines, values ahead:

inhibition at 1 µM	inhibition at 10 µM	Average Kat6A % inhibition @ 1 μM	Average Kat6A % inhibition @ 10 μM	Compound
100%	103%	–	–	COC(=O)NCc1cnn(Cc2cc3onc(NS(=O)(=O)c4ccccc4OC)c3c3c2CCCO3)c1 [Syn. Ex. 133, methyl ((1-((9-((2-methoxyphenyl)sulfonamido)-3,4-dihydro-2H-chromeno[8,7-d]isoxazol-5-yl)methyl)-1H-pyrazol-4-yl)methyl)carbamate]
98%	98%	–	–	CCOC(=O)NCc1cnn(Cc2cc(OC)c3c(NS(=O)(=O)c4cc(CC)ccc4OC)noc3c2)c1 [Syn. Ex. 16, ethyl ((1-((3-((5-ethyl-2-methoxyphenyl)sulfonamido)-4-methoxybenzo[d]isoxazol-6-yl)methyl)-1H-pyrazol-4-yl)methyl)carbamate]
99%	98%	–	–	COC(=O)NCc1cnn(Cc2cc(OC)c3c(NS(=O)(=O)c4cc(C)ccc4OC)noc3c2)c1 [Syn. Ex. 88, methyl ((1-((4-methoxy-3-((2-methoxy-5-methylphenyl)sulfonamido)benzo[d]isoxazol-6-yl)methyl)-1H-pyrazol-4-yl)methyl)carbamate]
–	–	111%	114%	COC(=O)NCc1cnn(Cc2cc3c4c(noc4c2)NS(=O)(=O)c2c(OC)cccc2OCCCCCO3)c1 [Syn. Ex. 138, methyl ((1-((14-methoxy-15,15-dioxido-6,7,8,9-tetrahydro-5H,16H-4,10,18-trioxa-15-thia-16,17-diazabenzo[11,12]cyclotetradeca[1,2,3-cd]inden-2-yl)methyl)-1H-pyrazol-4-yl)methyl)carbamate]
70%	100%	–	–	CC#CC(=O)NCc1ccc(Oc2cc(OC)c3c(NS(=O)(=O)c4cc(CC)ccc4OC)noc3c2)nc1 [Syn. Ex. 57, N-((6-((3-((5-ethyl-2-methoxyphenyl)sulfonamido)-4-methoxybenzo[d]isoxazol-6-yl)oxy)pyridin-3-yl)methyl)but-2-ynamide]
100%	99%	–	–	C#CC(=O)NCc1cnn(Cc2cc(OC)c3c(NS(=O)(=O)c4cc(Cl)c(C)cc4OC)noc3c2)c1 [Syn. Ex. 21, N-((1-((3-((5-chloro-2-methoxy-4-methylphenyl)sulfonamido)-4-methoxybenzo[d]isoxazol-6-yl)methyl)-1H-pyrazol-4-yl)methyl)propiolamide]
92%	100%	–	–	C=C(F)C(=O)N(C)Cc1cnn(Cc2cc(OC)c3c(NS(=O)(=O)c4cc(CC)ccc4OC)noc3c2)c1 [Syn. Ex. 39, N-((1-((3-((5-ethyl-2-methoxyphenyl)sulfonamido)-4-methoxybenzo[d]isoxazol-6-yl)methyl)-1H-pyrazol-4-yl)methyl)-2-fluoro-N-methylacrylamide]
100%	100%	–	–	C=C(F)C(=O)NCc1cnn(Cc2cc(OC)c3c(NS(=O)(=O)c4cc(CC)ccc4OCc4nc[nH]n4)noc3c2)c1 [Syn. Ex. 80, N-((1-((3-((2-((1H-1,2,4-triazol-3-yl)methoxy)-5-ethylphenyl)sulfonamido)-4-methoxybenzo[d]isoxazol-6-yl)methyl)-1H-pyrazol-4-yl)methyl)-2-fluoroacrylamide]

Source: patent US20250122182A1 (Isosterix, Inc., priority 2023, published 2025)
